From patent US20240316051A1, “A PHARMACEUTICAL COMBINATION AND USE THEREOF” (Ascentage Pharma (Suzhou) Co., Ltd., priority 2021, published 2024)

Assays:
[1] = tested on: BAP1 mut mesothelioma PDX model; experiment: BAP1 mut mesothelioma PDX model (Examples 15-17); format: in vivo, mice; settings: orally, once per day, 28 days
Protocol: (§1) A subcutaneous xenograft tumor model of human tumor immunodeficient mice was established by cell inoculation: tumor cells in logarithmic growth phase were collected, counted, resuspended in 1×PBS, and the cell suspension concentration was adjusted to 2.5-5×10^7/mL. The tumor cells were inoculated subcutaneously in the right side of immunodeficient mice with a 1 ml syringe ([…]), 5-10×10^6/0.2 mL/mouse. All animal experiments were strictly in accordance with the specifications for the use and management of experimental animals in GenePharma Co., Ltd. and Suzhou Ascentage Pharma Co., Ltd. The calculation of relevant parameters refers to the Chinese NMPA “Guidelines for Non-Clinical Research Techniques of Cytotoxic Anti-tumor Drugs”.
(§2) Animal body weight and tumor size were measured twice weekly during the experiment. The state of the animal and the presence or absence of death were observed every day. The growth of tumor and the effects of treatment on normal behavior of animals were monitored routinely, specifically involving experimental animal activity, feeding and drinking, weight gain or loss, eyes, clothing hair and other abnormalities. The deaths and clinical symptoms observed during the experiment were recorded in the raw data. All operations for administration and measurement of mouse body weight and tumor volume were performed in a clean bench. According to the requirements of the experimental protocol, after the end of the last administration, plasma and tumor tissues were collected, weighed and photographed. The plasma and tumor samples were frozen at −80° C. for ready-to-use.
(§3) Tumor volume (TV) is calculated as: TV=a×b^2/2, wherein a and b represent the length and width of the tumor to be measured, respectively.
The relative tumor volume (RTV) is calculated as: RTV=Vt/V1, wherein V1 is the tumor volume at the start of grouping and administration, and Vt is the tumor volume measured on the t day after administration.
The evaluation index of anti-tumor activity is the relative tumor proliferation rate T/C (%), and the calculation formula thereof is: relative tumor proliferation rate T/C (%)=(TRTV/CRTV)×100%, TRTV is the RTV of treatment group, CRTV is the RTV of solvent control group.
A dose of drug is considered to be severely toxic if the body weight of mouse is reduced by more than 20% or the number of drug-related deaths exceeds 20%.
According to the description by Clarke R., Issues in experimental design and endpoint analysis in the study of experimental cytotoxic agents in vivo in breast cancer and other models [J]. Breast Cancer Research & Treatment, 1997, 46(2-3): 255-278, synergy analysis was evaluated using the following formula: synergy factor=((A/C)×(B/C))/(AB/C); A=RTV value of drug A alone group; B=RTV value of drug B alone group; C=RTV value of the solvent control group, and AB=RTV value of the A and B combination group.
In this experiment, a BAP1 mut mesothelioma PDX model (Lide Biotech) was established to evaluate the anti-tumor effect of Compound 73. The dosing regimen was as follows: • Compound 73: 50 mg/kg, orally, once per day, for a total of 28 days; • Compound 73: 100 mg/kg, orally, once per day, for a total of 28 days;
In this experiment, a BAP1 mut mesothelioma PDX model (Lide Biotech) was established to evaluate the anti-tumor effect of Compound 73 in combination with Compound A-1. […]

EED (1-441)-His protein = biological target: T1, EED (1-441)-His protein (Homo sapiens, UniProt O75530); experiment: EED-H3K27Me3 peptide competition binding assay by AlphaScreen; settings: Table 4A, read-out: Alpha screen
T1 construct: 20 nM EED (1-441)-His protein
How it was run: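 Readout was AlphaScreen emission at 615 nm after 680 nm excitation, with 10 μg/ml final each of streptavidin donor and nickel chelate acceptor beads, 1 h at RT in the dark. Beforehand, compound met the His-tagged EED(1-441) for 15 min and then biotinylated H3K27Me3(19-33) peptide for 30 min; both were added as 20 nM solutions, buffer 25 mM HEPES pH 8, Tween-20, BSA. Percent activity left was fitted to give IC50.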

[2] = tested on: NCI-H226 (BAP1mut, CDKN2Adel, FGFR high) xenograft; experiment: NCI-H226 xenograft model (Examples 18-19); format: in vivo, mice; settings: Compound 73 50 mg/kg, orally, once per day, 35 days
Protocol: as §1
as §2, with “All operations for administration and measurement of mouse body weight and tumor volume were performed in a clean bench. According to the requirements of the experimental protocol, after the end of the last administration, plasma and tumor tissues were collected, weighed and photographed.” left out
as §3
The relative tumor volume (RTV) is calculated as: RTV=Vt/V1, wherein V1 is the tumor volume at the start of grouping and administration, and Vt is the tumor volume measured on the t day after administration. […]
Use of mRECIST (Gao et al., 2015) measured tumor responses included stable disease (SD), partial tumor regression (PR), and complete regression (CR), determined by comparing tumor volume change at day t to its baseline: tumor volume change (%)=(Vt−V1)/V1. […] For each time t, the average of tumor volume changes from t=1 to t was also calculated. […] Body weight of animals were monitored simultaneously. […]

T1 sequence (O75530 whole entry): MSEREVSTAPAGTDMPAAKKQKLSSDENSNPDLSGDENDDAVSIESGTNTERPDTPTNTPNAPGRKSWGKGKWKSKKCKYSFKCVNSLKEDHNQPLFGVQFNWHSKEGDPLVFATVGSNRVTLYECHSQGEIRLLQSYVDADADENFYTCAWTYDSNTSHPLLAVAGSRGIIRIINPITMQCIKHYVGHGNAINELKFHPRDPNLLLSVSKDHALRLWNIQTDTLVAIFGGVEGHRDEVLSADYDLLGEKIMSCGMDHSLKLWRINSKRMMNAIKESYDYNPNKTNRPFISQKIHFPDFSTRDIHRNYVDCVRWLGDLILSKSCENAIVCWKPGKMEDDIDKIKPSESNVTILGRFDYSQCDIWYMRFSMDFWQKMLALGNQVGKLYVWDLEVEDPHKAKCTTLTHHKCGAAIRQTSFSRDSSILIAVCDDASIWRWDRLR

IC50 (EED (1-441)-His protein): 0.5 nM
Compound: CC(C)N1Cc2cc(C(F)(F)F)ncc2-c2cnc(NCc3c(F)ccc4c3CCO4)n3cnc(c23)C1=O [Compound 73, 12-(((5-fluoro-2,3-dihydrobenzofuran-4-yl)methyl)amino)-4-isopropyl-7-(trifluoromethyl)-4,5-dihydro-3H-2,4,8,11,12a-pentaazabenzo[4,5]cycloocta[1,2,3-cd]inden-3-one]
T/C (%) ([1]; Compound 73 50 mg/kg, end of study): 69.7%
T/C (%) ([1]; Compound 73 100 mg/kg, 100 mg/kg): 60%
antitumor activity (in words) ([1]; Compound 73 single agent, 50 and 100 mg/kg): dose-dependent antitumor activity
T/C (%) [2]: 48.6%
tumor response (mRECIST) [2]: all the mice achieving stable disease (SD)
